Data: PMC4451689, “A Novel Direct Factor Xa Inhibitory Peptide with Anti-Platelet Aggregation Activity from Agkistrodon acutus Venom Hydrolysates” (Scientific Reports, 2015)
pIC50, pKi: −log10 of the molar value. Marks after values point to notes of the source that are not given here. Where a SMILES comes first, the peptide text is derived from it.

Key:
FXa [1] = biological target: T1, FXa (Homo sapiens, UniProt P00742); assay: Determination of the inhibitory constant for FXa (kinetics, Lineweaver-Burk); format: biochemical
Procedure: Figure 3 Kinetic activity of ACH-11 to FXa in vitro. Lineweaver-Burk plot (inset) for ACH-11 kinetics in PBS at pH 8.34 and 37 °C with mixed inhibition in the presence of different concentrations of ACH-11: 0 μM (slope of 0.376), 5 μM (slope of 0.528) and 10 μM (slope of 0.698). The plots represent the mean of 3 independent measurements.
Enzyme kinetic activity was assayed as described earlier, with minor modifications. All enzymatic reactions were carried out in PBS at pH 8.34 and at 37 °C. Freshly prepared FXa at a constant concentration of 1 nM was used in each reaction. ACH-11 was dissolved in 5% DMSO. Activities were measured for 4 different fixed concentrations of substrate (73.5, 147, 294 and 588 μM) in different concentrations of ACH-11 (0, 5 and 10 μM). The rates of the enzymatic reactions were monitored at 405 nm for 20 min using the Powerwave XS (Biotek, USA).

[2] = system: ADP-induced rabbit platelet aggregation; assay: In vitro platelet aggregation assay, ADP-induced; format: cell-based; settings: ADP 10 μM, rabbit PRP, turbidimetric, preincubated 5 min; 95% CI 185.36–225.02 μM
Procedure: (§1) Figure 5 ACH-11 inhibited ADP- and U46619-induced rabbit platelet aggregation in vitro. PRP was preincubated for 5 min with different concentrations of ACH-11 (0.1, 0.25, 0.5 and 1 mg/mL) or the vehicle. Platelet aggregation was initiated with ADP (10 μM), U46619 (6 μM), thrombin (3 U/mL) or collagen (2.5 μg/mL). Data are the mean ± SD (n = 3), ^****P < 0.0001 and ^*P < 0.05 versus vehicle, analyzed by one-way ANOVA, followed by the Tukey multiple comparison test.
(§2) Institute of Cancer Research (ICR) mice (18–22 g), Sprague-Dawley rats (180–250 g) and New Zealand white rabbits (2–2.5 kg) were purchased from Nanjing Qinglongshan Animal Center (Jiangsu province, China). They were housed in a temperature-controlled room at 25 ± 2 °C and 50 ± 5% relative humidity with a l2 h dark/light cycle. They were given free access to food and water ad libitum. The animals were acclimatized for at least 1 week prior to use. […]
(§3) In vitro platelet aggregation assays were performed according to the turbidimetric method, as described previously. […] The extent of platelet aggregation inhibition by ACH-11 was calculated by the following formula (2): [drawing 2] where X represents the maximum aggregation rate of 5% DMSO-treated PRP and Y represents the maximum aggregation rate of sample-treated PRP. […]

[3] = system: U46619-induced rabbit platelet aggregation; assay: In vitro platelet aggregation assay, U46619-induced; format: cell-based; settings: U46619 6 μM, rabbit PRP, turbidimetric, preincubated 5 min; 95% CI 415.62–525.95 μM
Procedure: as §1, §2, §3

bleeding time in mice = assay: Bleeding time (tail cutting method); format: in vivo; settings: n = 10; for bleeding time: tail in saline 37 °C, 20-min recording, mean ± SD
Procedure: Fifteen minutes after the administration of ACH-11 (1, 3 and 9 mg/kg), aspirin (9 mg/kg for 30 min) and the vehicle, a 3 mm-long tail tip was cut from the mice, and the remaining tail was immersed immediately into saline at 37 °C. The accumulated bleeding time (including periods of re-bleeding) was recorded over a 20-min period. Data are presented as the mean ± SD (n = 10). ^****P < 0.0001, ^**P < 0.01 versus vehicle, analyzed by one-way ANOVA, followed by the Tukey multiple comparison test.
(§4) Institute of Cancer Research (ICR) mice (18–22 g), Sprague-Dawley rats (180–250 g) and New Zealand white rabbits (2–2.5 kg) were purchased from Nanjing Qinglongshan Animal Center (Jiangsu province, China). They were housed in a temperature-controlled room at 25 ± 2 °C and 50 ± 5% relative humidity with a l2 h dark/light cycle. They were given free access to food and water ad libitum. The animals were acclimatized for at least 1 week prior to use. All experiments were carried out in accordance with the guidelines and the regulations of the Ethical Committee of the China Pharmaceutical University. The protocols were approved by the Institutional Animal Care and Use Committee of the China Pharmaceutical University.
Bleeding time of the mice was measured by a tail cutting method as described previously. Mice were randomly divided into five groups (both sexes, 10 per group), including a vehicle group, a reference drug group (9 mg/kg of aspirin-treated) and three sample groups (1, 3 and 9 mg/kg of ACH-11-treated).

[4] = system: ADP-induced acute pulmonary thrombosis in mice; assay: ADP-induced acute pulmonary thrombosis in mice; format: in vivo, ICR mice; settings: aspirin 20 mg/kg, ADP 300 mg/kg i.v.
Procedure: To examine whether ACH-11 exerted antithrombotic effects in vivo, the peptide was challenged in an acute pulmonary thrombosis model in mice. Aspirin, which is a clinical anti-thrombosis medicine that acts as a selective COX-1 inhibitor, was used as a positive control. In this model, small thrombi formed by intravenous injection of ADP (300 mg/kg) occluded pulmonary vessels, resulting in paralysis or death of the mice.
as §4
ADP-induced acute pulmonary thrombosis in mice was performed as described previously. Sixty ICR mice (18–22 g) were fasted overnight and randomly divided into 6 groups, with 10 mice per group (males and females in half). […]

[5] = system: arterio-venous shunt thrombosis in rats; assay: In vivo arterio-venous shunt thrombosis in rats; design: species or system Sprague-Dawley rats; settings: aspirin 20 mg/kg, rat; mean ± SEM, n = 6
Procedure: Figure 6 ACH-11 inhibited arterio-venous shunt thrombosis in rats in vivo. After the administration of ACH-11 (0.33, 1 and 3 mg/kg), aspirin and the vehicle, rats were anesthetized by intraperitoneal injection of chloral hydrate (350 mg/kg), and an arterio-venous shunt tube (12 cm, containing 10-cm long of 4 braided silk thread) was installed between the right carotid artery and left jugular vein of each rat. After 20 min, the silk thread was removed from the shunt tube, and its wet weight was immediately measured. The dry weight of the thread was measured 6 h later at room temperature. The wet and dry weights of the formed thrombi were determined by subtracting the pre-experiment weights of the wet and dry 6-cm threads, respectively. Data are the mean ± SD, ^*P < 0.05, ^***P < 0.001 and ^****P < 0.0001 versus vehicle, n = 6, analyzed by one-way ANOVA, followed by the Tukey multiple comparison test. […]
Antithrombotic activity of ACH-11 in vivo was determined in a rat arterio-venous shunt thrombosis model as described previously[39] with a minor modification. […] Its wet weight was measured immediately. The dry weight of thread was measured 6 h later at room temperature. The wet and dry weights of the thrombi were determined by subtracting the pre-experimental weights of the wet and dry 6-cm threads, respectively.

FXa [6] = biological target: T1, FXa; assay: Inhibition of amidolytic activity of FXa (chromogenic substrate S-2222); format: biochemical; settings: sample dissolved at 5 mg/mL, PBS pH 8.34, 37 °C, n = 3, compared with the other fractions/hydrolysates
Procedure: Figure 1 Selection of enzymatic hydrolysis conditions and bioassay-directed chromatographic separation of the FXa inhibitory peptide. (a) FXa inhibitory activities of Agkistrodon acutus venom hydrolysates obtained by treatment with pepsin, papain, neutrase and alcalase at 1, 2, 3, 4, 8, 12 h intervals. (b) Agkistrodon acutus venom hydrolysate produced by neutrase (3 h) was separated on a gel filtration column packed with Sephadex G-50 (2.6 × 100 cm). The hydrolysate was eluted by distilled water at a flow rate of 0.6 mL/min, collecting fractions of 3.6 mL. (c) The FXa inhibitory activities of fractions A-E. (d) Fraction C was separated on a Hedera ODS-2 column (20 × 250 mm). (e) The FXa inhibitory activities of fractions C1-C8. […]
The lyophilized neutrase hydrolysate (0.2 g) was dissolved in 10 mL of distilled water and applied to a Sephadex G-50 column (2.6 × 100 cm) equilibrated with distilled water and eluted with the same buffer at a flow rate of 0.6 mL/min. The eluents were monitored at 280 nm and were collected at 6 min intervals. […] The UV absorbance was monitored at 214 nm.
Inhibition of the amidolytic activity of FXa was analyzed by a method described previously, with minor modifications. Enzymatic activity was measured in PBS at pH 8.34 using the chromogenic substrate method. […] The absorbance-time curve and the slope of the curve (Vi) were used to represent the activity of the enzyme. […]

T1 sequence (P00742 235-488 limits assumed): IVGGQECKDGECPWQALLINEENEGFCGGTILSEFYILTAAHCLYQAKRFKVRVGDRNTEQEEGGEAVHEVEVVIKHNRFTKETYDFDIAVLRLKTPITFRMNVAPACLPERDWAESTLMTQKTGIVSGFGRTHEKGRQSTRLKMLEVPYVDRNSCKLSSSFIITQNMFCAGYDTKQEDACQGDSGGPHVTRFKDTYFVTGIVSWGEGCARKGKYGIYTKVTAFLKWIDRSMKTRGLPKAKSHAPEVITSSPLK
T1 sequence (P00742 41-179 partner limits assumed): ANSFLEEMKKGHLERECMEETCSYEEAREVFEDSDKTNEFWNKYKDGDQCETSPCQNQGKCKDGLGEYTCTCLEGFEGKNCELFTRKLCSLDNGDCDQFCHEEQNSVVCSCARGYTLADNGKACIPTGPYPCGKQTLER

CC[C@H](C)[C@H](NC(=O)[C@H](CCCNC(=N)N)NC(=O)[C@@H]1CCCN1C(=O)[C@H](Cc1ccccc1)NC(=O)[C@@H](NC(=O)[C@@H](N)CC(C)C)[C@@H](C)O)C(=O)N[C@H](C(=O)N[C@@H](Cc1ccccc1)C(=O)N[C@H](C(=O)N[C@@H](CC(C)C)C(=O)NCC(=O)O)C(C)C)C(C)C [ACH-11, LTFPRIVFVLG] (H-LTFPRIVFVLG-OH)
pKi (FXa [1]; PBS pH 8.34, 37 °C, FXa 1 nM, S-2222 73.5-588 μM, ACH-11 0, 5, 10 μM, 5% DMSO, mixed inhibition, mean of 3 independent measurements, read-out: Ki value for FXa inhibition towards S-2222): 5.04 | change in Vmax and Km of FXa towards S-2222 (FXa [1]; in the presence of ACH-11, PBS pH 8.34, 37 °C): A decrease in the Vmax value with a subsequent increase in the Km value | pIC50 [2]: 3.69 | pIC50 [3]: 3.33 | bleeding time (bleeding time in mice; ACH-11 1 mg/kg, 15 min after administration): 10.71 ± 2.98 min | bleeding time (bleeding time in mice; ACH-11 3 mg/kg, 15 min after administration): 11.73 ± 2.68 min | bleeding time (bleeding time in mice; ACH-11 9 mg/kg, 15 min after administration): 14.01 ± 1.88 min | bleeding time (effect in words) (bleeding time in mice; ACH-11 3 and 1 mg/kg, compared with vehicle): did not significantly prolong the bleeding time

CC(=O)Oc1ccccc1C(=O)O [Aspirin, aspirin]
Numbers of lethal/total ([4]; vehicle 9/10, P = 0.0055 versus vehicle): 2/10 | Protection rate ([4]; vehicle 10%, P = 0.0055 versus vehicle, n = 10): 80^** % | reduction of thrombus weight [5]: 59.10 ± 2.98% | bleeding time (bleeding time in mice; aspirin 9 mg/kg, 30 min after administration): 17.03 ± 2.86 min

LTFPRIVFVLG [fraction C4, RP-HPLC fraction of fraction C, purity greater than 96%; peptide … (natural ACH-11)]
FXa inhibitory activity (in words) (FXa [6]): displayed the highest FXa inhibitory activity
